{"source": "patent US20240358842A1", "about": "“PROTEIN STABILIZING COMPOUNDS CONTAINING USP7 LIGANDS” (Stablix, Inc., priority 2021, published 2024)", "key": {"USP7 CD + UBL 1-5": {"target": "T1, USP7 CD + UBL 1-5 (Homo sapiens, UniProt Q93009)", "T1 construct": "USP7 CD +", "T1 sequence (Q93009 208-1102 limits assumed)": "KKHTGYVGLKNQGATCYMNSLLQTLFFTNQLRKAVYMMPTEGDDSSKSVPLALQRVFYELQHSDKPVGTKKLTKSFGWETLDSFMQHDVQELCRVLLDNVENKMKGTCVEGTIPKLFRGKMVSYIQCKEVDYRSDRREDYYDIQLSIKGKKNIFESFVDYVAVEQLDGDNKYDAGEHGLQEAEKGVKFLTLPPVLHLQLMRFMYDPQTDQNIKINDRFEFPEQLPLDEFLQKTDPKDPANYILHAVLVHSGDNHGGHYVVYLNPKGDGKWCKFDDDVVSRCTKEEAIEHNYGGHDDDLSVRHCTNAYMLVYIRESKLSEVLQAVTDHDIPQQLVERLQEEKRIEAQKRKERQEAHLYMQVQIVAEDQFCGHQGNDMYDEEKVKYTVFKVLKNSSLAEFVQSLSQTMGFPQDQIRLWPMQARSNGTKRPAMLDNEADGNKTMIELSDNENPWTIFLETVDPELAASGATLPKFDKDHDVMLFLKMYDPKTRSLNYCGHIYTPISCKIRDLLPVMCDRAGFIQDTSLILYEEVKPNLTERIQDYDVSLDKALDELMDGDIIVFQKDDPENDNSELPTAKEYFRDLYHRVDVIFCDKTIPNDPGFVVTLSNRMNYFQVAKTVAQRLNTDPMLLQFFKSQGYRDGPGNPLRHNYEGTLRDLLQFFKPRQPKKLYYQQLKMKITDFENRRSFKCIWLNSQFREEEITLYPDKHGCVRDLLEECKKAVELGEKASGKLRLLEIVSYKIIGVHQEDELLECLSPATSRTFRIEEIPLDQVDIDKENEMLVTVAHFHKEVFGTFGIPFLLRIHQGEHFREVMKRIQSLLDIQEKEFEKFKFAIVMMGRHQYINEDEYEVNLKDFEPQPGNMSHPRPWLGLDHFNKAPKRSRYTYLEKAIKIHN", "experiment": "Surface plasmon resonance assay (SPR)", "type": "binding", "experimental": "The surface plasmon resonance experiments were performed using a Cytiva (formerly GE Healthcare) Biacore 8K equipped with a Series S Sensor Chip SA. The ligands were immobilized via a biotin-modified biotin acceptor peptide. USP7 Ligands were diluted in running buffer (HBS-P+2% DMSO; 10 mM HEPES, pH 7.4, 150 mM NaCl, 1 mM DTT, 0.05% P20, 2% DMSO) to 100 μg/mL and injected at […] until a density between 500-10,000 RU was reached on flow-cell two of each channel, and flow cell one was left blank to serve as a reference surface. Both surfaces were washed until a stable baseline was achieved then 30 startup cycles to condition the surface. To collect kinetic and steady-state binding data, the small molecule analytes were prepared in three-fold dilution series in HBS-P+2% DMSO running buffer. Analytes were injected over both flow cells at a flow rate of […] at 25° C. The complex was allowed to associate for 60 seconds and dissociate for 300 seconds. Data were collected at 10 Hz. The data were fit to a simple 1:1 interaction model global data analysis within Cytiva Biacore Insight Evaluation Software."}, "USP7": {"target": "USP7 (Homo sapiens, UniProt Q93009)", "sequence (Q93009 whole entry)": "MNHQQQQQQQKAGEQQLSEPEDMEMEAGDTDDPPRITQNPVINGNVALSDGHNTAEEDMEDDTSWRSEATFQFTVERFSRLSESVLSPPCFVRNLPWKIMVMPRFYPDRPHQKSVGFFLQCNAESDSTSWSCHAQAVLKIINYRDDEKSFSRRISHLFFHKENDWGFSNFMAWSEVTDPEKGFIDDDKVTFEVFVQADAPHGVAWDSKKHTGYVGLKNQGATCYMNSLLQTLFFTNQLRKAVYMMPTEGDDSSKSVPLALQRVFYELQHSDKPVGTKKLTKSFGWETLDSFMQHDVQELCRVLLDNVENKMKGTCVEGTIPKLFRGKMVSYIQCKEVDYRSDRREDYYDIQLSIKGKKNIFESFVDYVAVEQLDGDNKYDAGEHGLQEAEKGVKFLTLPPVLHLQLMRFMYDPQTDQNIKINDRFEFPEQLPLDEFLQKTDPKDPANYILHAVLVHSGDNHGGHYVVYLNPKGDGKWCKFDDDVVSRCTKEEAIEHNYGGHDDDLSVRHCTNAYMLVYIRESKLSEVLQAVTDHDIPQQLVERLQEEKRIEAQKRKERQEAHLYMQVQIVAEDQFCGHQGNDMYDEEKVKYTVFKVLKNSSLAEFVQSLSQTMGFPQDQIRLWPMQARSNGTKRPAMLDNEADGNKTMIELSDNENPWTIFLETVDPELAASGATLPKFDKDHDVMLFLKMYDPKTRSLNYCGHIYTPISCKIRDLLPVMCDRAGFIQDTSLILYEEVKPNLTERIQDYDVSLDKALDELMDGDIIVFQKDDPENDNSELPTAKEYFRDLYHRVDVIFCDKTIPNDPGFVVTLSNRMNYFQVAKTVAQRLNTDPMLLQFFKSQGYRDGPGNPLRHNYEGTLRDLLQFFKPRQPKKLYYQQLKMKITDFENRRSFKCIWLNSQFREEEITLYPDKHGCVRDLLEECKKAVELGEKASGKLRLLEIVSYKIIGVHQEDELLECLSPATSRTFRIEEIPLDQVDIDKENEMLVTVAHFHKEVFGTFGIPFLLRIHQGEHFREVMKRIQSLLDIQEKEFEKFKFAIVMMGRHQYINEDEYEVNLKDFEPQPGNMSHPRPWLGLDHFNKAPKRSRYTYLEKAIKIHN", "experiment": "Ub-Rho cleavage assay", "type": "biochemical", "conditions": "Ub-Rho substrate, recombinant USP7; read-out: Ub (Rho) USP7.1 (IC50)", "experimental": "All fluorescence measurements were performed on a Molecular Devices FlexStation3 with excitation at 480 nm and emission 540 nm, PMT Gain: Medium, Flash Number: 10. […] Assay buffer for all measurements was 50 mM HEPES, 100 mM NaCl, 0.5 mM EDTA, 1 mM TCEP, 0.1 mg/ml BSA, 0.01% Tween-20, pH 7.8. […] Serial dilutions were made with a Mosquito HTS (SPT Labtech) nanoliter liquid handler. 200 nL of each compound in duplicate or DMSO control were transferred to the assay plate. The first two columns served as positive controls. 9.8 μl per well of USP7 working solution was added to the assay plate. Compound+Protein was incubated for 25 min at 25° C. 10 uL of Ub-Rho substrate was added per well and incubated for an additional 15 min at 25° C. Fluorescence was then measured. Percent response relative to DMSO controls was calculated in GraphPad or Scinamic, and the data was fitted to a non-linear regression to determine IC50 values."}, "[1]": {"conditions": "steady-state KD, read-out: SPR USP7 CD + UBL 1-5 (KD_ss)"}, "[2]": {"conditions": "kinetic KD, read-out: SPR USP7 CD + UBL 1-5 (KD_kinetic)"}}, "note": "pIC50, pKd: −log10 of the molar value. Read-outs that look alike come from different tables or passages of the source."}
{"molecule": "CN1CCCn2nc(C(=O)Nc3nc4ccc(NS(=O)(=O)c5cn6ccccc6n5)cc4s3)cc2C1", "note": "[U110]", "values": [{"measurement": "pKd", "setting": "USP7 CD + UBL 1-5; [1]", "result": "4.00 to 6.00"}, {"measurement": "pIC50", "setting": "USP7", "result": "< 4.00"}]}
{"molecule": "CN1CCCn2nc(C(=O)Nc3nc4ccc(N(C)S(=O)(=O)c5cccs5)cc4s3)cc2C1", "note": "[U111]", "values": [{"measurement": "pKd", "setting": "USP7 CD + UBL 1-5; [1]", "result": "< 4.00"}, {"measurement": "pIC50", "setting": "USP7", "result": "< 4.00"}]}
{"molecule": "NC1CCn2nc(C(=O)Nc3nc4ccc(NS(=O)(=O)c5cccs5)cc4s3)cc2C1", "note": "(stereo not drawn) [U112]", "values": [{"measurement": "pKd", "setting": "USP7 CD + UBL 1-5; [1]", "result": "4.00 to 6.00"}, {"measurement": "pIC50", "setting": "USP7", "result": "< 4.00"}]}
{"molecule": "CN1CCCn2nc(C(=O)Nc3nc4ccc(N[S+]([O-])c5cccs5)cc4s3)cc2C1", "note": "(stereo not drawn) [U113]", "values": [{"measurement": "pKd", "setting": "USP7 CD + UBL 1-5; [1]", "result": "4.00 to 6.00"}, {"measurement": "pIC50", "setting": "USP7", "result": "< 4.00"}]}
{"molecule": "CN1CCCn2nc(C(=O)Nc3nc4ccc(NCc5c[nH]cn5)cc4s3)cc2C1", "note": "[U114]", "values": [{"measurement": "pKd", "setting": "USP7 CD + UBL 1-5; [1]", "result": "< 4.00"}, {"measurement": "pIC50", "setting": "USP7", "result": "< 4.00"}]}
{"molecule": "CN1CCCn2nc(C(=O)Nc3nc4ccc(N(CC5CCNC5)S(=O)(=O)c5cccs5)cc4s3)cc2C1", "note": "(stereo not drawn) [U115]", "values": [{"measurement": "pKd", "setting": "USP7 CD + UBL 1-5; [1]", "result": "4.00 to 6.00"}, {"measurement": "pIC50", "setting": "USP7", "result": "< 4.00"}]}
{"molecule": "CN1CCCn2nc(C(=O)Nc3nc4ccc(NS(=O)(=O)c5nnc[nH]5)cc4s3)cc2C1", "note": "[U116]", "values": [{"measurement": "pKd", "setting": "USP7 CD + UBL 1-5; [1]", "result": "4.00 to 6.00"}, {"measurement": "pIC50", "setting": "USP7", "result": "< 4.00"}]}
{"molecule": "CN1CC2CN(C(=O)Nc3nc4ccc(NS(=O)(=O)c5cccs5)cc4s3)CC2C1", "note": "(stereo not drawn) [U117]", "values": [{"measurement": "pKd", "setting": "USP7 CD + UBL 1-5; [1]", "result": "4.00 to 6.00"}, {"measurement": "pIC50", "setting": "USP7", "result": "< 4.00"}]}
{"molecule": "O=C(Nc1nc2ccc(NS(=O)(=O)c3cccs3)cc2s1)c1ccn[nH]1", "note": "[U118]", "values": [{"measurement": "pKd", "setting": "USP7 CD + UBL 1-5; [1]", "result": "4.00 to 6.00"}, {"measurement": "pIC50", "setting": "USP7", "result": "< 4.00"}]}
{"molecule": "C#CCCN1CCCn2nc(C(=O)Nc3nc4ccc(NS(=O)(=O)c5cccs5)cc4s3)cc2C1", "note": "[U119]", "values": [{"measurement": "pKd", "setting": "USP7 CD + UBL 1-5; [1]", "result": "4.00 to 6.00"}, {"measurement": "pIC50", "setting": "USP7", "result": "< 4.00"}]}
{"molecule": "CN1CCCn2nc(C(=O)Nc3nc4ccc(N(C5CCNC5)S(=O)(=O)c5cccs5)cc4s3)cc2C1", "note": "(stereo not drawn) [U120]", "values": [{"measurement": "pKd", "setting": "USP7 CD + UBL 1-5; [1]", "result": "4.00 to 6.00"}, {"measurement": "pIC50", "setting": "USP7", "result": "< 4.00"}]}
{"molecule": "CN1CCCn2nc(C(=O)Nc3nc4ccc(NS(=O)(=O)c5nn6ccccc6c5Cl)cc4s3)cc2C1", "note": "[U121]", "values": [{"measurement": "pKd", "setting": "USP7 CD + UBL 1-5; [1]", "result": "4.00 to 6.00"}, {"measurement": "pIC50", "setting": "USP7", "result": "< 4.00"}]}
{"molecule": "CCC(=O)N1CCC(C(=O)Nc2nc3ccc(NS(=O)(=O)c4cccs4)cc3s2)C1", "note": "(stereo not drawn) [U122]", "values": [{"measurement": "pKd", "setting": "USP7 CD + UBL 1-5; [1]", "result": "4.00 to 6.00"}, {"measurement": "pIC50", "setting": "USP7", "result": "< 4.00"}]}
{"molecule": "CN1CCN(C(=O)Nc2nc3ccc(NS(=O)(=O)c4cccs4)cc3s2)CC1=O", "note": "[U123]", "values": [{"measurement": "pKd", "setting": "USP7 CD + UBL 1-5; [1]", "result": "< 4.00"}, {"measurement": "pIC50", "setting": "USP7", "result": "< 4.00"}]}
{"molecule": "CN1CCCn2nc(C(=O)Nc3nc4ccc(NS(=O)(=O)c5cccs5)cc4s3)nc2C1", "note": "[U124]", "values": [{"measurement": "pKd", "setting": "USP7 CD + UBL 1-5; [1]", "result": "< 4.00"}, {"measurement": "pIC50", "setting": "USP7", "result": "4.00 to 6.00"}]}
{"molecule": "O=C(Nc1nc2ccc(NS(=O)(=O)c3cccs3)cc2s1)N1CCOCC1", "note": "[U126]", "values": [{"measurement": "pKd", "setting": "USP7 CD + UBL 1-5; [1]", "result": "4.00 to 6.00"}, {"measurement": "pIC50", "setting": "USP7", "result": "< 4.00"}]}
{"molecule": "CN1CCCn2nc(C(=O)Nc3nc4ccc(S(=O)(=O)NC5CCNC5)cc4s3)cc2C1", "note": "(stereo not drawn) [U127]", "values": [{"measurement": "pKd", "setting": "USP7 CD + UBL 1-5; [1]", "result": "4.00 to 6.00"}, {"measurement": "pIC50", "setting": "USP7", "result": "< 4.00"}]}
{"molecule": "CN1CCCn2nc(C(=O)Nc3nc4ccc(NS(=O)(=O)C5CCNC5)cc4s3)cc2C1", "note": "(stereo not drawn) [U128]", "values": [{"measurement": "pKd", "setting": "USP7 CD + UBL 1-5; [1]", "result": "4.00 to 6.00"}, {"measurement": "pIC50", "setting": "USP7", "result": "< 4.00"}]}
{"molecule": "C=CC(=O)N1CCC(C(=O)Nc2nc3ccc(NS(=O)(=O)c4cccs4)cc3s2)C1", "note": "(stereo not drawn) [U129]", "values": [{"measurement": "pKd", "setting": "USP7 CD + UBL 1-5; [1]", "result": "4.00 to 6.00"}, {"measurement": "pIC50", "setting": "USP7", "result": "< 4.00"}]}
{"molecule": "CN1CCCn2nc(C(=O)Nc3nc4ccc(NS(=O)(=O)c5cc6ccccn6n5)cc4s3)cc2C1", "note": "[U130]", "values": [{"measurement": "pKd", "setting": "USP7 CD + UBL 1-5; [1]", "result": "4.00 to 6.00"}, {"measurement": "pIC50", "setting": "USP7", "result": "< 4.00"}]}
{"molecule": "C[C@H](CC(=O)N1CCC(O)(Cn2cnc3c(-c4ccc(CNC(=O)CCCCNC(=O)OC(C)(C)C)cc4)n(C)nc3c2=O)CC1)c1ccccc1", "note": "[U131]", "values": [{"measurement": "pKd", "setting": "USP7 CD + UBL 1-5; [2]", "result": "> 6.00"}, {"measurement": "pIC50", "setting": "USP7", "result": "> 6.00"}]}
{"molecule": "C[C@H](CC(=O)N1CCC(O)(Cn2cnc3c(-c4ccc(CNC(=O)CCCCCCNC(=O)OC(C)(C)C)cc4)n(C)nc3c2=O)CC1)c1ccccc1", "note": "[U132]", "values": [{"measurement": "pKd", "setting": "USP7 CD + UBL 1-5; [2]", "result": "> 6.00"}, {"measurement": "pIC50", "setting": "USP7", "result": "> 6.00"}]}
{"molecule": "C[C@H](CC(=O)N1CCC(O)(Cn2cnc3c(-c4ccc(CNC(=O)CCCCCCCNC(=O)OC(C)(C)C)cc4)n(C)nc3c2=O)CC1)c1ccccc1", "note": "[U133]", "values": [{"measurement": "pKd", "setting": "USP7 CD + UBL 1-5; [2]", "result": "> 6.00"}, {"measurement": "pIC50", "setting": "USP7", "result": "> 6.00"}]}
{"molecule": "C[C@H](CC(=O)N1CCC(O)(Cn2cnc3c(-c4ccc(CNC(=O)CCNC(=O)OC(C)(C)C)cc4)n(C)nc3c2=O)CC1)c1ccccc1", "note": "[U134]", "values": [{"measurement": "pKd", "setting": "USP7 CD + UBL 1-5; [2]", "result": "> 6.00"}, {"measurement": "pIC50", "setting": "USP7", "result": "> 6.00"}]}
